Results on one substance are retold here after patent publication US7029695B2, “Therapeutic compositions containing glutathione analogs” (Telik, Inc., priority 2001, dated 2006).

In experiment [1] the test system is fluorouracil-induced neutropenia. As to conditions: liposomal formulation of Example 4; 35 mg/kg i.v., 8 daily injections after fluorouracil 125 mg/kg i.p.; male CD rats. Here is the method:
Male CD rats (250–300 g) were injected intraperitoneally with either the antineoplastic drug, fluorouracil (125 mg/kg) or an equivalent volume of its vehicle (saline). […] Rats originally injected with saline rather than fluorouracil received saline intravenously (n=7). Blood samples were taken for measurement of neutrophil levels prior to the fluorouracil and every 1 to 2 days thereafter for 14 days.

In experiment [2] the test system is circulating neutrophil levels. As to conditions: liposomal formulation of Example 4; 35 mg/kg i.v., 5 daily injections; normal male CD rats. From the text: Blood samples were taken for measurement of neutrophil levels daily.

For “γ-Glutamyl-S(benzyl)cysteinyl-R-phenyl glycine diethyl ester hydrochloride [Compound 9]”, the “recovery from chemotherapy-induced neutropenia” value in experiment [1] is “accelerated recovery”. In addition, the circulating neutrophil levels entry in experiment [2] is listed as “increased”.
